Consider six compounds from ChEMBL document CHEMBL5244235, “Diarylpentanoids with antitumor activity: A critical review of structure-activity relationship studies” (Eur J Med Chem, 2020).

SMILES strings stand for the structures.

Assay [1] concerns RPMI-7951. Put plainly: Antiproliferative activity against human RPMI-7951 cells assessed as cell growth inhibition measured after 72 hrs by neutral red assay. The assay is classed as functional.
In assay [2] the test system is MDA-MB-231. Kind of assay: Antiproliferative activity against human MDA-MB-231 cells assessed as cell growth inhibition measured after 72 hrs by neutral red assay. Type of assay: functional.
Assay [3] deals with NSCLC. Put plainly: Antiproliferative activity against human NSCLC cells assessed as cell growth inhibition measured after 72 hrs by neutral red assay. The assay is classed as functional.
Assay [4] concerns Panel CNS (Carcinoma cell lines). Kind of assay: Antiproliferative activity against human Panel CNS (Carcinoma cell lines) assessed as cell growth inhibition measured after 72 hrs by neutral red assay. The assay is classed as functional.
Assay [5] concerns Panel leukemia (Carcinoma cell lines). Put plainly: Antiproliferative activity against human Panel leukemia (Carcinoma cell lines) assessed as cell growth inhibition measured after 72 hrs by neutral red assay. The assay is classed as functional.
Assay [6] relates to Panel colon (Carcinoma cell lines). Put plainly: Antiproliferative activity against human Panel colon (Carcinoma cell lines) assessed as cell growth inhibition measured after 72 hrs by neutral red assay. Type of assay: functional.
For assay [7], the system named is Panel melanoma (Carcinoma cell lines). Kind of assay: Antiproliferative activity against human Panel melanoma (Carcinoma cell lines) assessed as cell growth inhibition measured after 72 hrs by neutral red assay. Type of assay: functional.
Assay [8] deals with Panel ovarian (Carcinoma cell lines). Put plainly: Antiproliferative activity against human Panel ovarian (Carcinoma cell lines) assessed as cell growth inhibition measured after 72 hrs by neutral red assay. Type of assay: functional.
Assay [9] concerns Panel renal (Carcinoma cell lines). Put plainly: Antiproliferative activity against human Panel renal (Carcinoma cell lines) assessed as cell growth inhibition measured after 72 hrs by neutral red assay. The assay is classed as functional.
Assay [10] has as its system Panel prostate (Carcinoma cell lines). Put plainly: Antiproliferative activity against human Panel prostate (Carcinoma cell lines) assessed as cell growth inhibition measured after 72 hrs by neutral red assay. Type of assay: functional.
The test system of assay [11] is Panel breast (Carcinoma cell lines). Kind of assay: Antiproliferative activity against human Panel breast (Carcinoma cell lines) assessed as cell growth inhibition measured after 72 hrs by neutral red assay. The assay is classed as functional.
In assay [12] the test system is SVR. Kind of assay: Anti-angiogenesis activity in mouse SVR cells assessed as cell growth inhibition. Type of assay: functional, cell-based.
The nature of assay [13]: Anti-angiogenesis activity in […] MS-1 cells assessed as cell growth inhibition. Type of assay: functional, cell-based.
The subject of assay [14] is HUVEC. Put plainly: Anti-angiogenesis activity in HUVEC cells assessed as cell growth inhibition. Conditions: Homo sapiens. Type of assay: functional, cell-based.
Assay [15] can be described thus: Antiproliferative activity against human Panel NCI-58 (58 carcinoma cell lines) assessed as cell growth inhibition. The assay is classed as functional.
Assay [16] concerns HCT-116. Put plainly: Antiproliferative activity against human HCT-116 cells assessed as cell viability measured after 24 hrs by XTT assay. Type of assay: functional, cell-based. The conditions noted are these: HCT-116, 24 h.
The subject of assay [17] is HT-29. Kind of assay: Antiproliferative activity against human HT-29 cells assessed as cell viability measured after 24 hrs by XTT assay. The assay is classed as functional, cell-based. Conditions: HT-29, 24 h.
Assay [18] deals with Jurkat E6.1. Put plainly: Antiproliferative activity against human Jurkat E6.1 cells assessed as cell viability by WST-1 assay. Type of assay: functional, cell-based.
Assay [19] concerns U-937. Put plainly: Antiproliferative activity against human U-937 cells assessed as cell viability by WST-1 assay. Type of assay: functional, cell-based.
The subject of assay [20] is SAOS-2. Kind of assay: Antiproliferative activity against human SAOS-2 cells assessed as cell viability by WST-1 assay. Type of assay: functional, cell-based.
In assay [21] the test system is HCT-116. Kind of assay: Antiproliferative activity against human HCT-116 cells assessed as cell viability by WST-1 assay. The assay is classed as functional, cell-based.
Assay [22] concerns A549. Put plainly: Antiproliferative activity against human A549 cells assessed as cell growth inhibition measured after 48 hrs by MTT assay. Type of assay: functional, cell-based. The conditions noted are these: A549, 48 h.
The test system of assay [23] is NCI-H460. Kind of assay: Antiproliferative activity against human NCI-H460 cells assessed as cell growth inhibition measured after 48 hrs by MTT assay. The assay is classed as functional, cell-based. The conditions noted are these: NCI-H460, 48 h.
Assay [24] deals with A2780. Put plainly: Antiproliferative activity against human A2780 cells assessed as cell viability at 10 uM measured after 24 hrs by MTT assay relative to control. The conditions noted are these: read-out: Activity. Type of assay: functional.

`O=C1/C(=C/c2ccccc2O)CCC/C1=C\c1ccccc1O`: the concentration for 50% growth inhibition (GI50) in assay [1], in [2], in assay [3], in [4], in [5] and in assay [6] was 1.6 µM throughout. The GI50 in [7] was found to be 1.6 µM; in [8], 1.6 µM; in assay [9], 1.6 µM; in assay [10], 1.6 µM; in [11], 1.6 µM; in assay [12], 2 µM. Moreover, the concentration for 50% growth inhibition (GI50) in assay [13] and in [14] was 2 µM in each case.

In the case of `CCOc1cc(/C=C2\CN(C)C/C(=C\c3ccc(O)c(OCC)c3)C2=O)ccc1O`, the GI50 in assay [15] amounted to 1.4 µM.

In the case of `CN1C/C(=C\c2ccccn2)C(=O)/C(=C/c2ccccn2)C1`, the IC50 in assay [16] and in assay [17] was 0.62 µM throughout.

As to `O=C1/C(=C/c2ccc(O)c(O)c2)COC/C1=C\c1ccc(O)c(O)c1`, the 50% inhibitory concentration (IC50) in [18], in assay [19], in assay [20] and in [21] was 1.45 µM throughout.

As to `O=C1/C(=C/c2ccccc2F)CCC/C1=C\c1ccccc1F`, the values for the IC50 in assay [22] and in assay [23] were 30.5 µM and 28.7 µM, respectively.

On to `CC1(C)C=C(CN2C/C(=C\c3ccc(F)cc3)C(=O)/C(=C/c3ccc(F)cc3)C2)C(C)(C)N1O`, for which the viability at 10 µM in assay [24] turned out to be 20%.
